The values that follow come from ChEMBL document CHEMBL1201862, “PubChem BioAssay data set” (2004).

Common to all, as to assay: DTP human tumour cell line panel, 48 h
The subject of test [1] is CCRF-CEM.
In test [2] the test system is COLO 205.
The subject of test [3] is HCT-116.
For test [4], the system named is HT-29.
The subject of test [5] is KM12.
Test [6] concerns MDA-N.
In test [7] the test system is MOLT-4.
Test [8] concerns Malme-3M.
Test [9] concerns OVCAR-3.
In test [10] the test system is OVCAR-5.
For test [11], the system named is RXF 393.
Test [12] has as its system SF-268.
The test system of test [13] is SF-539.
Test [14] concerns SK-OV-3.
Test [15] has as its system SN12C.
Test [16] deals with SNB-19.
Test [17] concerns SW-620.
The test system of test [18] is TK-10.
The test system of test [19] is U-251.
The test system of test [20] is UACC-62.

SMILES strings stand for the structures.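 A five-concentration, 48-hour dose response in 96-well plates underlies each endpoint, interpolated linearly between surrounding concentrations. At the GI50, growth is halved.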 Calls of active or inactive are those of the source. Rule as the data show it: active = GI50 up to about 1.1 µM and inactive = higher. Bounds are passed on as bounds.

One may read the GI50 as the concentration that inhibits growth by half. `O=C1CCCc2cc3c(cc21)CC1(C3)Cc2cc3c(cc2C1)C(=O)CCC3`: the GI50 was 0.998 µM (active) in test [1]; 1.33 µM (inactive) in [2]; 0.706 µM (active) in test [3]; 0.743 µM (active) in test [4]; 0.493 µM (active) in test [5]; 0.214 µM (active) in test [6]. The GI50 in test [7] was 1 µM (active); in test [8], 0.798 µM (active); in test [9] it was 1.57 µM (inactive); in test [10], 4.54 µM (inactive); in test [11], 1.45 µM (inactive); in [12], 3.37 µM (inactive). The GI50 in test [13] is 1.12 µM (active); in [14], 3.52 µM (inactive); in [15], 4.46 µM (inactive); in test [16], 4.58 µM (inactive); in [17] it was 0.815 µM (active); in test [18], 1.81 µM (inactive). The figures for the GI50 in [19] and in test [20] were 1.64 µM (inactive) and 0.531 µM (active), respectively.
`N#Cc1c(N)nc(Sc2ccccc2N)c(C#N)c1-c1ccc(Cl)cc1`: the GI50 in test [1] is > 27.2 µM (inactive); in [2] it was 28.5 µM (inactive); in test [3] it was 6.81 µM (inactive); in test [4], 7.71 µM (inactive); in test [5] it was 12.6 µM (inactive); in test [6], 9.91 µM (inactive). Moreover, the GI50 in test [7] is 1.37 µM (inactive); in [8], 6.61 µM (inactive); in [9], 6.34 µM (inactive); in test [10] it was 27.1 µM (inactive); in test [11] it was 16 µM (inactive); in [12] it was 6.24 µM (inactive). Moreover, the GI50 is 11.8 µM (inactive) in [13]; 12 µM (inactive) in [14]; 13.8 µM (inactive) in test [15]; 14.3 µM (inactive) in test [16]; > 33.3 µM (inactive) in [17]; 13.7 µM (inactive) in [18]. Besides, the GI50 in [19] was 7.59 µM (inactive); in test [20], 4.06 µM (inactive).
For the compound `CS(=O)(=O)C(=Cc1ccccc1Cl)S(C)(=O)=O`, the GI50 was 25.5 µM (inactive) in [1]; > 100 µM (inactive) in test [2]; 31.1 µM (inactive) in test [3]; > 100 µM (inactive) in test [4]; > 46.5 µM (inactive) in test [5]; > 46.5 µM (inactive) in [6]. Moreover, the GI50 in test [7], in [8], in [9], in test [10], in test [11] and in test [12] was > 100 µM (inactive) throughout. Also, the GI50 is > 100 µM (inactive) in test [13]; > 100 µM (inactive) in [14]; > 100 µM (inactive) in [15]; > 100 µM (inactive) in test [16]; > 66.4 µM (inactive) in [17]; > 100 µM (inactive) in test [18]. Besides, the values for the GI50 in test [19] and in [20] were > 100 µM (inactive) and 24.4 µM (inactive), respectively.
`C=CCc1c(Cl)nc(Cl)nc1Cl`: the GI50 was < 0.01 µM (active) in [1]; 0.195 µM (active) in test [2]; 0.352 µM (active) in [3]; 0.266 µM (active) in test [4]; 0.439 µM (active) in [5]; 0.0308 µM (active) in test [6]. The 50% growth inhibitory concentration (GI50) is 0.0102 µM (active) in [7]; 0.159 µM (active) in test [8]; 0.161 µM (active) in [9]; 0.678 µM (active) in [10]; 0.217 µM (active) in test [11]; 1.66 µM (inactive) in [12]. Also, the 50% growth inhibitory concentration (GI50) in test [13] is 1.04 µM (active); in [14], 1.32 µM (inactive); in test [15], 0.258 µM (active); in test [16], 0.859 µM (active); in [17] it was 0.0495 µM (active); in [18], 1.08 µM (active). For the same compound, the GI50 in [19] was 0.578 µM (active); in [20] it was 0.333 µM (active).
On to `COc1cc2oc3ccccc3c(=O)c2cc1CSc1ccccc1N`, for which the GI50 in test [1] was 4.94 µM (inactive); in test [2], 15.8 µM (inactive); in test [3], 19.5 µM (inactive); in test [4], 18.7 µM (inactive); in [5], 4.62 µM (inactive); in test [6], 3.27 µM (inactive). Moreover, the GI50 in test [7] is 4.83 µM (inactive); in test [8], 18.6 µM (inactive); in test [9] it was 18.5 µM (inactive); in [10], > 81.8 µM (inactive); in test [11] it was 11 µM (inactive); in test [12] it was 41.1 µM (inactive). Further, the GI50 in test [13] was 45.3 µM (inactive); in test [14], 28 µM (inactive); in test [15], 46.8 µM (inactive); in [16], 56.5 µM (inactive); in test [17], 6.81 µM (inactive); in test [18], 35.5 µM (inactive). For the same compound, the figures for the GI50 in [19] and in [20] were 22.9 µM (inactive) and 9.71 µM (inactive), respectively.
In the case of `CC(=O)NCC1OC2COC(c3ccccc3)OC2C2N=C(c3ccccc3)OC12` (stereo not given), the GI50 in [1] was 35.4 µM (inactive); in test [2], 30.7 µM (inactive); in test [3], 38.4 µM (inactive); in test [4] it was 34.8 µM (inactive); in [5], 40.4 µM (inactive); in test [6], 39.1 µM (inactive). Further, the GI50 in test [7] was 43.2 µM (inactive); in test [8], 58.7 µM (inactive); in [9], 76 µM (inactive); in test [10], > 100 µM (inactive); in test [11], 41.7 µM (inactive); in test [12], 81.1 µM (inactive). The GI50 in [13] is > 100 µM (inactive); in test [14], 74.1 µM (inactive); in [15], > 100 µM (inactive); in test [16] it was > 100 µM (inactive); in test [17] it was 80.9 µM (inactive); in test [18] it was 58.2 µM (inactive). In addition, the results for the GI50 in test [19] and in test [20] were > 100 µM (inactive) and 45.7 µM (inactive), respectively.
As for `CNc1nc2c(C)ccc3nc(N(C)C)[nH]c3c-2n1`, the GI50 in test [1] was 81.8 µM (inactive); in test [2] it was 26.7 µM (inactive); in [3] it was 38.9 µM (inactive); in [4], 30.7 µM (inactive); in test [5], 39.4 µM (inactive); in test [6] it was 33.8 µM (inactive). For the same compound, the GI50 in test [7] was 32.7 µM (inactive); in test [8], 31.1 µM (inactive); in test [9] it was 82.2 µM (inactive); in [10] it was 74.8 µM (inactive); in test [11], 25.7 µM (inactive); in test [12] it was 32.4 µM (inactive). The GI50 in [13] was 24.8 µM (inactive); in test [14], 21.1 µM (inactive); in test [15], 36.1 µM (inactive); in test [16] it was 15.3 µM (inactive); in [17], 47.3 µM (inactive); in [18] it was > 100 µM (inactive). In addition, the GI50 in [19] is 58.3 µM (inactive); in [20], 68.7 µM (inactive).
Turning to `COC(=O)CNC(=O)c1cc(C)cc2c1Oc1c(cc(C)cc1C(=O)NCC(=O)OC)S2`, the GI50 in [1] was 60.1 µM (inactive); in test [2], 28.4 µM (inactive); in test [3], > 100 µM (inactive); in test [4] it was 47.1 µM (inactive); in [5], 81.7 µM (inactive); in test [6] it was > 100 µM (inactive). Moreover, the GI50 in test [7] was 62.2 µM (inactive); in [8], 17.9 µM (inactive); in test [9], 38.5 µM (inactive); in [10], > 100 µM (inactive); in test [11] it was 29.6 µM (inactive); in test [12], 99.8 µM (inactive). Moreover, the GI50 in [13] was 21.3 µM (inactive); in test [14], 56 µM (inactive); in test [15], 57.8 µM (inactive); in test [16], > 100 µM (inactive); in [17] it was > 100 µM (inactive); in test [18] it was > 100 µM (inactive). For the same compound, the GI50 was > 100 µM (inactive) in test [19] and 34.1 µM (inactive) in test [20].
Take `C/C(=N\NC(=S)NC(C)(C)C)c1nc2cccnc2[nH]1`: the GI50 in [1] is 0.955 µM (active); in [2] it was 2.26 µM (inactive); in [3], 3.59 µM (inactive); in test [4], 1.71 µM (inactive); in test [5], 4.8 µM (inactive); in [6], 7.38 µM (inactive). Besides, the GI50 was 2.13 µM (inactive) in [7]; 4.49 µM (inactive) in test [8]; 0.384 µM (active) in [9]; 1.14 µM (inactive) in [10]; 4.92 µM (inactive) in [11]; 6.53 µM (inactive) in test [12]. For the same compound, the GI50 in test [13] is 3.21 µM (inactive); in [14], 3.08 µM (inactive); in test [15], 7.74 µM (inactive); in test [16], 6.93 µM (inactive); in [17] it was 3.47 µM (inactive); in test [18], 7.35 µM (inactive). Also, the figures for the GI50 in test [19] and in test [20] were 1.15 µM (inactive) and 2.57 µM (inactive), respectively.
Consider `O=C1CC[N+]2=Cc3ccccc3O[B-]2(c2ccccc2)O1` (stereo not given), for which the GI50 in [1], in test [2], in test [3], in test [4], in test [5] and in test [6] was > 100 µM (inactive) in each case. In addition, the GI50 in [7], in test [8], in [9], in test [10], in [11] and in [12] was > 100 µM (inactive) throughout. The GI50 in test [13], in test [14], in test [15], in [16], in test [17] and in test [18] was > 100 µM (inactive) throughout. Also, the GI50 in [19] and in test [20] was > 100 µM (inactive) throughout.
